We go through 13 compounds from ChEMBL document CHEMBL4715898, “Synthesis and structure-activity relationships of pyrimidine derivatives as potent and orally active FGFR3 inhibitors with both increased systemic exposure and enhanced in vitro potency” (Bioorg Med Chem, 2021).

The nature of series [1]: in vitro. The settings on record: PAMPA, pH 7.4. A general note: In PAMPA a lipid-coated filter parts donor from acceptor wells.
Series [2] can be described thus: physchem. The following applies: JP2 fluid, pH 6.8.
Series [3] is described as follows: physchem. The following applies: buffer, pH 7.4.
The nature of series [4]: cells. The settings on record: Homo sapiens, NIH3T3, 120 h.
The conditions of series [5]: mouse, in vivo, po, 30 mg/kg, 0.75 h.
The nature of series [6]: in vivo. The following applies: ICR, mouse, plasma, po, 30 mg/kg.
A short description of series [7]: animal or person. The settings on record: Mus musculus, Balb/c, NIH3T3, po, 6 h, read-out: INH.

Values after ≈ are worked out from the molar mass of the structure shown.

Usually Papp stands for a coefficient for how fast a substance crosses the barrier. For orientation: solubility means the dissolved amount per volume that the medium holds. Read a high solubility as much dissolved substance. Usually logD stands for the decadic logarithm of the distribution of all forms, ionised or not, between an organic phase and buffer at a given pH. Read a high logD as a more lipophilic compound. As a reminder, the IC50 is the concentration that inhibits the measured activity by half. Low readings indicate greater potency in that assay, high ones weaker potency in that assay. For `CCNS(=O)(=O)c1ccccc1Nc1nc(Nc2ccc(N3CCC(N4CCN(C)CC4)CC3)c(OC)c2)ncc1CCc1cc(OC)cc(OC)c1`, in series [1], the Papp at 2 h was determined as 1.8 ×10⁻⁶ cm/s. The solubility at 20 h, 10000 µM in series [2] was below 1 µM. In series [3], this compound returned a logD above 4.8. Also, half-maximal inhibition in series [4] (IC50) was put at 34 nM.
On to `COc1cc(CCc2cnc(Nc3ccc(N4CCC(N5CCN(C)CC5)CC4)c(OC)c3)nc2)c(F)c(OC)c1`, for which, in series [1], the Papp at 2 h was 24.4 ×10⁻⁶ cm/s. In series [2], this compound displayed a solubility at 20 h, 10000 µM of at least 100 µM. Also, the logD in series [3] is 3.2.
In turn, `CCNS(=O)(=O)c1ccccc1Nc1nc(Nc2ccc(N3CCC(N4CCN(C)CC4)CC3)c(OC)c2)ncc1NC(=O)c1cc(OC)cc(OC)c1` gave a Papp at 2 h in series [1] of 1.4 ×10⁻⁶ cm/s. The solubility at 20 h, 10000 µM in series [2] is below 1 µM. This compound also showed a logD in series [3] above 3.9. Moreover, the IC50 in series [4] was determined as 99 nM. This compound came in with a CL in series [5] above 600 mL/min/kg. In series [6], this compound registered a concentration at 6 h of 98.2 nM.
Compound `COc1cc(Nc2ncc(CCc3c(F)c(OC)cc(OC)c3Cl)cn2)ccc1N1CCC(N2CCN(C)CC2)CC1` returned an apparent permeability (Papp) at 2 h in series [1] of 19.4 ×10⁻⁶ cm/s. For the same compound, the solubility at 20 h, 10000 µM in series [2] was 12 µM (≈ 7.19 µg/mL). In addition, the logD in series [3] is 3.5.
The like results for `COc1cc(OC)cc(C(=O)Nc2cnc(Nc3ccc(N4CCC(N5CCN(C)CC5)CC4)c(OC)c3)nc2)c1` were, in that order, below 2.9 ×10⁻⁶ cm/s, at least 100 µM and 2.8.
In the case of `COc1cc(Nc2ncc(CCc3c(Cl)c(OC)cc(OC)c3Cl)cn2)ccc1N1CCC(N2CCN(C)CC2)CC1`, the Papp at 2 h in series [1] turned out to be 18.7 ×10⁻⁶ cm/s. The solubility at 20 h, 10000 µM in series [2] was determined as 5 µM (≈ 3.08 µg/mL). The logD in series [3] is 4.4.
The corresponding values for `COc1cc(CNc2cnc(Nc3ccc(N4CCC(N5CCN(C)CC5)CC4)c(OC)c3)nc2)cc(OC)c1` are 18.1 ×10⁻⁶ cm/s, at least 100 µM and 2.9.
Compound `COc1cc(CCc2cnc(Nc3ccc(N4CCC(N5CCN(C)CC5)CC4)c(OC)c3)nc2)cc(OC)c1` returned a Papp at 2 h in series [1] of 15.1 ×10⁻⁶ cm/s. In addition, the solubility at 20 h, 10000 µM in series [2] was at least 100 µM. Further, the logD in series [3] turned out to be 3.5. The compound further registered a CL in series [5] of 227 mL/min/kg. For the same compound, the concentration at 6 h in series [6] came to 1120 nM. Moreover, in series [7], the inhibition in vivo at 30 mg/kg stood at 21%.
In series [1], `COc1cc(COc2cnc(Nc3ccc(N4CCC(N5CCN(C)CC5)CC4)c(OC)c3)nc2)cc(OC)c1` registered a Papp at 2 h of 18.5 ×10⁻⁶ cm/s. Moreover, in series [2], the solubility at 20 h, 10000 µM is at least 100 µM. This compound also showed a logD in series [3] of 3.2.
In the case of `COc1cc(OC)cc(C(=O)Nc2cnc(Nc3ccc(N4CCC(N5CCN(C)CC5)CC4)c(OC)c3)nc2Nc2ccccc2)c1`, the Papp at 2 h in series [1] was 0.4 ×10⁻⁶ cm/s. Further, the solubility at 20 h, 10000 µM in series [2] was 36 µM (≈ 23.5 µg/mL). In series [3], this compound gave a logD of 3.7.
In series [1], `COc1cc(OC)cc(OCc2cnc(Nc3ccc(N4CCC(N5CCN(C)CC5)CC4)c(OC)c3)nc2)c1` came in with a Papp at 2 h above 30 ×10⁻⁶ cm/s. In addition, the solubility at 20 h, 10000 µM in series [2] was at least 100 µM. In series [3], this compound showed a logD of 3.4.
`COc1cc(OC)cc(C(=O)N(C)c2cnc(Nc3ccc(N4CCC(N5CCN(C)CC5)CC4)c(OC)c3)nc2)c1` yielded a Papp at 2 h in series [1] of 3.7 ×10⁻⁶ cm/s. This compound had a solubility at 20 h, 10000 µM in series [2] of at least 100 µM. In series [3], the logD was 1.8.
The corresponding values for `COc1cc(OC)cc(C(=O)Nc2cnc(Nc3ccc(N4CCC(N5CCN(C)CC5)CC4)c(OC)c3)nc2NCCS(C)(=O)=O)c1` are below 0.2 ×10⁻⁶ cm/s, at least 100 µM and 1.8.
